From patent publication EP0454444A1, “Glutarimide derivatives and herbicides” (NISSAN CHEMICAL INDUSTRIES LTD., priority 1990, dated 1991)

Tests used:
Assay in all cases: Herbicidal effect test by soil treatment
Type in all cases: in vivo
rice (Oryza sativa) = conditions: crop plant, three weeks after spraying
From the text: (§1) In a plastic box of 15 cm length, 22 cm width and 6 cm depth, there was placed a sterilized dilvial soil, and seeds of barnyardgrass (Echinochloa crusgalli), large crabgrass (Digitaria adscendens), annual sedge (Cyperus microiria), black nightshade (Solanum nigrum L.), hairly galinosoga (Galinsoga ciliat), rorippa ssp. (Rorippa atrovirens), rice (Oryza sativa), corn (Zea mays), wheat (Triticum aestivum), soybean (Glysine max) and cotton (Gossypium herbaceum) were sown mixedly. After covering soil to about 1 cm over the seeds, herbicides were sprayed evenly on the soil surface to predetermined proportions of the active ingredient In spraying, the wettable powder, emulsifiable concentrate, dry flowable or flowable in the above formulation examples were diluted with water and sprayed over the entire surface by means of a small sprayer. Three weeks after spraying, the herbicidal effect on crop plants including rice, corn, wheat, soybean, cotton and various kinds of weeds were examined according to the judgement criteria shown below. Judgement criteria
(§2) The above growth control rates are determined by measuring the top fresh weights of the treated plants and those of the non-treated plants, and culculated from the following formula: [formula]

[1] = tested on: black nightshade (Solanum nigrum L.); conditions: three weeks after spraying
From the text: as §1, §2

[2] = tested on: wheat (Triticum aestivum); conditions: crop plant, three weeks after spraying
From the text: as §1, §2

corn (Zea mays) = conditions: crop plant, three weeks after spraying
From the text: as §1, §2

[3] = tested on: large crabgrass (Digitaria adscendens); conditions: three weeks after spraying
From the text: as §1, §2

soybean (Glysine max) = conditions: crop plant, three weeks after spraying
From the text: as §1, §2

[4] = tested on: cotton (Gossypium herbaceum); conditions: crop plant, three weeks after spraying
From the text: as §1, §2

[5] = tested on: annual sedge (Cyperus microiria); conditions: three weeks after spraying
From the text: as §1, §2

[6] = tested on: hairly galinosoga (Galinsoga ciliat); conditions: three weeks after spraying
From the text: as §1, §2

[7] = tested on: barnyardgrass (Echinochloa crusgalli); conditions: three weeks after spraying
From the text: as §1, §2

[8] = tested on: rorippa ssp. (Rorippa atrovirens); conditions: three weeks after spraying
From the text: as §1, §2

## CC(C)OC(=O)c1cc(N2C(=O)CC(C(F)(F)F)C(C)C2=O)c(F)cc1Cl (centres unmarked) [1-3]
Rice (Oryza sativa); application amount 0.4 g/a
  herbicidal effect, R (Oryza sativa): 4 (Growth control rates of 70 to 90%)
Rice (Oryza sativa); application amount 0.8 g/a
  herbicidal effect, R (Oryza sativa): 5 (Growth control,rates of more than 90% (almost completely withered))
Rice (Oryza sativa); application amount 1.6 g/a
  herbicidal effect, R (Oryza sativa): 5 (Growth control,rates of more than 90% (almost completely withered))
[1]; application amount 0.4 g/a
  herbicidal effect, H (Solanum nigrum L.): 5 (Growth control,rates of more than 90% (almost completely withered))
[1]; application amount 0.8 g/a
  herbicidal effect, H (Solanum nigrum L.): 5 (Growth control,rates of more than 90% (almost completely withered))
[1]; application amount 1.6 g/a
  herbicidal effect, H (Solanum nigrum L.): 5 (Growth control,rates of more than 90% (almost completely withered))
[2]; application amount 0.4 g/a
  herbicidal effect, W (Triticum vulgare): 2 (Growth control rates of 20 to 40%)
[2]; application amount 0.8 g/a
  herbicidal effect, W (Triticum vulgare): 3 (Growth control rates of 40 to 70%)
[2]; application amount 1.6 g/a
  herbicidal effect, W (Triticum vulgare): 5 (Growth control,rates of more than 90% (almost completely withered))
Corn (Zea mays); application amount 0.4 g/a
  herbicidal effect, T (Zea mays): 2 (Growth control rates of 20 to 40%)
Corn (Zea mays); application amount 0.8 g/a
  herbicidal effect, T (Zea mays): 3 (Growth control rates of 40 to 70%)
Corn (Zea mays); application amount 1.6 g/a
  herbicidal effect, T (Zea mays): 4 (Growth control rates of 70 to 90%)
[3]; application amount 0.4 g/a
  herbicidal effect, M (Digitaria adscendens): 5 (Growth control,rates of more than 90% (almost completely withered))
[3]; application amount 0.8 g/a
  herbicidal effect, M (Digitaria adscendens): 5 (Growth control,rates of more than 90% (almost completely withered))
[3]; application amount 1.6 g/a
  herbicidal effect, M (Digitaria adscendens): 5 (Growth control,rates of more than 90% (almost completely withered))
Soybean (Glysine max); application amount 0.4 g/a
  herbicidal effect, S (Glysine max): 0 (Growth control rates of less than 5% (substantially no effect))
Soybean (Glysine max); application amount 0.8 g/a
  herbicidal effect, S (Glysine max): 0 (Growth control rates of less than 5% (substantially no effect))
Soybean (Glysine max); application amount 1.6 g/a
  herbicidal effect, S (Glysine max): 2 (Growth control rates of 20 to 40%)
[4]; application amount 0.4 g/a
  herbicidal effect, C (Gossypium herbaceum): 0 (Growth control rates of less than 5% (substantially no effect))
[4]; application amount 0.8 g/a
  herbicidal effect, C (Gossypium herbaceum): 1 (Growth control rates of 5 to 20%)
[4]; application amount 1.6 g/a
  herbicidal effect, C (Gossypium herbaceum): 3 (Growth control rates of 40 to 70%)
[5]; application amount 0.4 g/a
  herbicidal effect, K (Cyperus microiria): 5 (Growth control,rates of more than 90% (almost completely withered))
[5]; application amount 0.8 g/a
  herbicidal effect, K (Cyperus microiria): 5 (Growth control,rates of more than 90% (almost completely withered))
[5]; application amount 1.6 g/a
  herbicidal effect, K (Cyperus microiria): 5 (Growth control,rates of more than 90% (almost completely withered))
[6]; application amount 0.4 g/a
  herbicidal effect, D (Galinsoga ciliat): 5 (Growth control,rates of more than 90% (almost completely withered))
[6]; application amount 0.8 g/a
  herbicidal effect, D (Galinsoga ciliat): 5 (Growth control,rates of more than 90% (almost completely withered))
[6]; application amount 1.6 g/a
  herbicidal effect, D (Galinsoga ciliat): 5 (Growth control,rates of more than 90% (almost completely withered))
[7]; application amount 0.4 g/a
  herbicidal effect, N (Echinochloa crusgalli): 5 (Growth control,rates of more than 90% (almost completely withered))
[7]; application amount 0.8 g/a
  herbicidal effect, N (Echinochloa crusgalli): 5 (Growth control,rates of more than 90% (almost completely withered))
[7]; application amount 1.6 g/a
  herbicidal effect, N (Echinochloa crusgalli): 5 (Growth control,rates of more than 90% (almost completely withered))
[8]; application amount 0.4 g/a
  herbicidal effect, I (Rorippa indica): 5 (Growth control,rates of more than 90% (almost completely withered))
[8]; application amount 0.8 g/a
  herbicidal effect, I (Rorippa indica): 5 (Growth control,rates of more than 90% (almost completely withered))
[8]; application amount 1.6 g/a
  herbicidal effect, I (Rorippa indica): 5 (Growth control,rates of more than 90% (almost completely withered))

## CC(C)OC(=O)c1cc(N2C(=O)CC(C(C)C)C(C)C2=O)c(F)cc1Cl (centres unmarked) [1-5]
Rice (Oryza sativa); application amount 1.6 g/a
  herbicidal effect, R (Oryza sativa): 1 (Growth control rates of 5 to 20%)
[1]; application amount 1.6 g/a
  herbicidal effect, H (Solanum nigrum L.): 5 (Growth control,rates of more than 90% (almost completely withered))
[2]; application amount 1.6 g/a
  herbicidal effect, W (Triticum vulgare): 1 (Growth control rates of 5 to 20%)
Corn (Zea mays); application amount 1.6 g/a
  herbicidal effect, T (Zea mays): 0 (Growth control rates of less than 5% (substantially no effect))
[3]; application amount 1.6 g/a
  herbicidal effect, M (Digitaria adscendens): 5 (Growth control,rates of more than 90% (almost completely withered))
Soybean (Glysine max); application amount 1.6 g/a
  herbicidal effect, S (Glysine max): 0 (Growth control rates of less than 5% (substantially no effect))
[4]; application amount 1.6 g/a
  herbicidal effect, C (Gossypium herbaceum): 0 (Growth control rates of less than 5% (substantially no effect))
[5]; application amount 1.6 g/a
  herbicidal effect, K (Cyperus microiria): 5 (Growth control,rates of more than 90% (almost completely withered))
[6]; application amount 1.6 g/a
  herbicidal effect, D (Galinsoga ciliat): 5 (Growth control,rates of more than 90% (almost completely withered))
[7]; application amount 1.6 g/a
  herbicidal effect, N (Echinochloa crusgalli): 4 (Growth control rates of 70 to 90%)
[8]; application amount 1.6 g/a
  herbicidal effect, I (Rorippa indica): 5 (Growth control,rates of more than 90% (almost completely withered))

## CCOC(=O)c1cc(N2C(=O)CCC(C)C2=O)c(F)cc1Cl (centres unmarked) [1-12]
Rice (Oryza sativa); application amount 6.3 g/a
  herbicidal effect, R (Oryza sativa): 2 (Growth control rates of 20 to 40%)
[1]; application amount 6.3 g/a
  herbicidal effect, H (Solanum nigrum L.): 2 (Growth control rates of 20 to 40%)
[2]; application amount 6.3 g/a
  herbicidal effect, W (Triticum vulgare): 1 (Growth control rates of 5 to 20%)
Corn (Zea mays); application amount 6.3 g/a
  herbicidal effect, T (Zea mays): 0 (Growth control rates of less than 5% (substantially no effect))
[3]; application amount 6.3 g/a
  herbicidal effect, M (Digitaria adscendens): 5 (Growth control,rates of more than 90% (almost completely withered))
Soybean (Glysine max); application amount 6.3 g/a
  herbicidal effect, S (Glysine max): 0 (Growth control rates of less than 5% (substantially no effect))
[4]; application amount 6.3 g/a
  herbicidal effect, C (Gossypium herbaceum): 0 (Growth control rates of less than 5% (substantially no effect))
[5]; application amount 6.3 g/a
  herbicidal effect, K (Cyperus microiria): 5 (Growth control,rates of more than 90% (almost completely withered))
[6]; application amount 6.3 g/a
  herbicidal effect, D (Galinsoga ciliat): 4 (Growth control rates of 70 to 90%)
[7]; application amount 6.3 g/a
  herbicidal effect, N (Echinochloa crusgalli): 2 (Growth control rates of 20 to 40%)
[8]; application amount 6.3 g/a
  herbicidal effect, I (Rorippa indica): 5 (Growth control,rates of more than 90% (almost completely withered))

## CCS(=O)(=O)Nc1cc(N2C(=O)CC(C(F)(F)F)CC2=O)c(F)cc1Cl [1-15]
Rice (Oryza sativa); application amount 1.6 g/a
  herbicidal effect, R (Oryza sativa): 0 (Growth control rates of less than 5% (substantially no effect))
[1]; application amount 1.6 g/a
  herbicidal effect, H (Solanum nigrum L.): 5 (Growth control,rates of more than 90% (almost completely withered))
[2]; application amount 1.6 g/a
  herbicidal effect, W (Triticum vulgare): 0 (Growth control rates of less than 5% (substantially no effect))
Corn (Zea mays); application amount 1.6 g/a
  herbicidal effect, T (Zea mays): 0 (Growth control rates of less than 5% (substantially no effect))
[3]; application amount 1.6 g/a
  herbicidal effect, M (Digitaria adscendens): 5 (Growth control,rates of more than 90% (almost completely withered))
Soybean (Glysine max); application amount 1.6 g/a
  herbicidal effect, S (Glysine max): 0 (Growth control rates of less than 5% (substantially no effect))
[4]; application amount 1.6 g/a
  herbicidal effect, C (Gossypium herbaceum): 0 (Growth control rates of less than 5% (substantially no effect))
[5]; application amount 1.6 g/a
  herbicidal effect, K (Cyperus microiria): 5 (Growth control,rates of more than 90% (almost completely withered))
[6]; application amount 1.6 g/a
  herbicidal effect, D (Galinsoga ciliat): 5 (Growth control,rates of more than 90% (almost completely withered))
[7]; application amount 1.6 g/a
  herbicidal effect, N (Echinochloa crusgalli): 3 (Growth control rates of 40 to 70%)
[8]; application amount 1.6 g/a
  herbicidal effect, I (Rorippa indica): 5 (Growth control,rates of more than 90% (almost completely withered))

## CC1CC(=O)N(c2cc3c(cc2F)OCC(=O)N3)C(=O)C1 [1-22]
Rice (Oryza sativa); application amount 1.6 g/a
  herbicidal effect, R (Oryza sativa): 0 (Growth control rates of less than 5% (substantially no effect))
[1]; application amount 1.6 g/a
  herbicidal effect, H (Solanum nigrum L.): 5 (Growth control,rates of more than 90% (almost completely withered))
[2]; application amount 1.6 g/a
  herbicidal effect, W (Triticum vulgare): 0 (Growth control rates of less than 5% (substantially no effect))
Corn (Zea mays); application amount 1.6 g/a
  herbicidal effect, T (Zea mays): 0 (Growth control rates of less than 5% (substantially no effect))
[3]; application amount 1.6 g/a
  herbicidal effect, M (Digitaria adscendens): 5 (Growth control,rates of more than 90% (almost completely withered))
Soybean (Glysine max); application amount 1.6 g/a
  herbicidal effect, S (Glysine max): 0 (Growth control rates of less than 5% (substantially no effect))
[4]; application amount 1.6 g/a
  herbicidal effect, C (Gossypium herbaceum): 0 (Growth control rates of less than 5% (substantially no effect))
[5]; application amount 1.6 g/a
  herbicidal effect, K (Cyperus microiria): 5 (Growth control,rates of more than 90% (almost completely withered))
[6]; application amount 1.6 g/a
  herbicidal effect, D (Galinsoga ciliat): 5 (Growth control,rates of more than 90% (almost completely withered))
[7]; application amount 1.6 g/a
  herbicidal effect, N (Echinochloa crusgalli): 5 (Growth control,rates of more than 90% (almost completely withered))
[8]; application amount 1.6 g/a
  herbicidal effect, I (Rorippa indica): 5 (Growth control,rates of more than 90% (almost completely withered))
